SMILES strings stand for the structures.

Chain of DDR1 (Q08345 other isoform, or with tags, fused parts or gaps isoform Q08345-2): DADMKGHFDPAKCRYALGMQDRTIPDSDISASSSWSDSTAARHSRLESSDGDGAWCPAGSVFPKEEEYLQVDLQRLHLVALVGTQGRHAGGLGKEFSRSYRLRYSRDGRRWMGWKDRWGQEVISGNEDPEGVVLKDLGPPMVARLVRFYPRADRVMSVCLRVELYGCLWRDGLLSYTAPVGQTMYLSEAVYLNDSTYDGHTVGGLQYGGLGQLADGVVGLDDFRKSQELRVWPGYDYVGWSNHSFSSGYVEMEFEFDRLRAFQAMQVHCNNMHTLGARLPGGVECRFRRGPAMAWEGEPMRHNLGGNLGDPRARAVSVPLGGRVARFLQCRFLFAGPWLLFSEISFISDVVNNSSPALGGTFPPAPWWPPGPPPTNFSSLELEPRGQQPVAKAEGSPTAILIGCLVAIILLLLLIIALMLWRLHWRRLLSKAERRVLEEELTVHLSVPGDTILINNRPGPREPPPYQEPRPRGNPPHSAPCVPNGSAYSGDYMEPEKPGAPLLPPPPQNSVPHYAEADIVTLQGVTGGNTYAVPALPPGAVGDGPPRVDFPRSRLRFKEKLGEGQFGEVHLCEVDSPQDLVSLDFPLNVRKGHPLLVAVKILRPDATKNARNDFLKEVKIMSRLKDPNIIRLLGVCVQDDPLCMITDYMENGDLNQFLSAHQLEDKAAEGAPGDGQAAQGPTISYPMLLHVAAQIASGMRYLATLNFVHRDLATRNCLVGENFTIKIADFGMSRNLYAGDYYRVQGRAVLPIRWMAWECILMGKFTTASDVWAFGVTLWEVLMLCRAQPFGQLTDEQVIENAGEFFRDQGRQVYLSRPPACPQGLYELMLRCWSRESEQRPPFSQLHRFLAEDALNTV

The experiment addresses DDR1 (Homo sapiens (Human), UniProt Q08345). The experiment is described as follows: DDR1 kinase inhibition assay (FAM-labeled peptide), IC50. Format: biochemical. The protocol:
1× kinase base buffer (50 mM HEPES, pH 7.5, 0.0015% Brij-35) and a stop buffer (100 mM HEPES, pH 7.5, 0.015% Brij-35, 0.2% Coating Reagent #3, 50 mM EDTA) were prepared for testing kinases.
The compounds were diluted with 100% DMSO to 100 times the highest final inhibitor concentration required in the reaction. 100 μl of dilution of the compound was transferred to wells of a 96-well plate. For example, 100000 nM solution of the compound in DMSO was prepared in this step in case that an inhibitor concentration of 1000 nM is required. 100 μl of 100% DMSO was added to two empty wells of a 96-well plate for no compound control and no enzyme control. This plate was labeled as the source plate. A new 96-well plate with 5 μl of compound transferred from the source plate is used as an intermediate plate. 95 μl of 1× kinase buffer was added to each well of the intermediate plate. The compounds in the intermediate plate was mixed on a shaker for 10 minutes.
5 μl of sample in each well from the 96-well intermediate plate was transferred to the 384-well plate in duplicate. For example, well A1 of the 96-well plate was transferred to wells A2 and A1 of the 384-well plate, and well A2 of the 96-well plate was transferred to wells A3 and A4 of the 384-well plate, and so forth. 2.5× enzyme solution was prepared: 1× kinase basal buffer with added kinase. 2.5× peptide solution was prepared: 1× kinase basal buffer with added FAM-labeled peptide and ATP. To an assay plate already contained 5 μl of 10% dimethyl sulfoxide compound, 2.5× enzyme solution was transferred, and each well of the 384-well assay plate was added 10 μl of 2.5× enzyme solution. After incubation at room temperature for 10 minutes, 2.5× peptide solution was transferred to the assay plate. Each well of the 384-well assay plate was added 10 μl of 2.5× peptide solution. Kinase reaction and termination: incubation at 28° C. for a specified period followed by the addition of 25 μl stop buffer to stop the reaction. The data was read and collected.
Broadly, the IC50 is the concentration needed to halve the response being measured. Read a high IC50 as lower potency. `Cc1ccc(C(=O)Nc2ccccn2)cc1C#Cc1cnc2cc(C3CC=CCC3)cnn12` (stereo not drawn) [Compound C4] yielded an IC50 of less than 500 nM.
For `CCc1ccc(C(=O)Nc2ccccn2)cc1C#Cc1cnc2cc(C3=CCCCC3)cnn12` [Compound C9] the value was less than 500 nM; for `Cc1ccc(C(=O)Nc2ccccn2)cc1C#Cc1cnc2cc(C3CCCCC3)cnn12` [Compound C2], less than 500 nM.
The figure for `Cc1ccc(C(=O)Nc2ccccn2)cc1-c1cccc(-c2cnc3cc(C4=CCCCC4)cnn23)c1` [Compound C11] is less than 500 nM; for `CC(C)c1ccc(C(=O)Nc2ccccn2)cc1C#Cc1cnc2cc(C3=CCCCC3)cnn12` [Compound C10] it is less than 500 nM; for `Cc1ccc(C(=O)Nc2ccccn2)cc1C#Cc1cnc2cc(C3=CCCC3)cnn12` [Compound C6] it is less than 500 nM.
For `Cc1ccc(C(=O)Nc2ccccn2)cc1C#Cc1cnc2cc(C3CC=CC3)cnn12` [Compound C8] the value was less than 500 nM; for `Cc1ccc(C(=O)Nc2ccccn2)cc1C#Cc1cnc2cc(C3C=CCC3)cnn12` (stereo not drawn) [Compound C7], less than 500 nM.
In turn, `Cc1ccc(C(=O)Nc2ccccn2)cc1C#Cc1cnc2cc(C3C=CCCC3)cnn12` (stereo not drawn) [Compound C3] registered an IC50 of less than 500 nM.
For `O=C(N[C@H]1CC[C@H](O)CC1)c1ccc2ccc(-c3ccc(NC4CCCCC4)cc3)cc2n1` [DC1, reference compound] the value was greater than 1000 nM; for `Cc1cc(-c2cc(C(=O)Nc3ccccn3)ccc2C)cc(-c2cnc3cc(C4=CCCCC4)cnn23)c1` [Compound C12], less than 500 nM.
In turn, `Cc1ccc(C(=O)Nc2ccccn2)cc1C#Cc1cnc2cc(C3CCCC3)cnn12` [Compound C5] registered an IC50 of less than 500 nM.
